Results taken from patent publication US4032659A (priority 1975, dated 1977).
“Also recorded” adds a separate entry of the source. Where two headings read alike, the source gives them in different places.

Key:
Herpes virus [1] = assay type: in vivo, mouse; details: oral
Herpes virus [2] = experiment: Herpes virus in eggs (chick embryo survival); assay type: in vivo, chicken eggs; details: for No. Living Longer Than Controls, total: all doses; for Deaths on day 1 / Deaths on day 3 / Deaths on day 4 / Total Deaths 4th Day / Deaths on day 2: 12 eggs
[3] = tested on: Influenza Ann Arbor virus; experiment: Chemoprophylaxis of Influenza Ann Arbor (A1) virus infection in mice; assay type: in vivo, mouse
Influenza PR 8 virus = experiment: Chemoprophylaxis of Influenza PR 8 virus infection in mice; assay type: in vivo, mouse
Mengo virus = Mengo virus infection in mice; assay type: in vivo, mouse; details: oral
From the text: The results are illustrated in Table 43.

Vaccinia virus [4] = assay type: in vivo; details: scarified rabbit skin
Vaccinia virus [5] = assay type: cell-based, fertile eggs; details: various concentrations
virus infections = experiment: Antiviral screening program, several viruses; details: mouse, in vivo
Neurovaccinia virus = experiment: Neurovaccinia (intracerebral) in mice; details: mouse, in vivo
[6] = tested on: Influenza B Massachusetts virus; details: larger doses, different dose schedules; cited from earlier work
Columbia SK Polio virus = details: mouse, in vivo
[7] = tested on: Influenza B Massachusetts virus; experiment: Chemoprophylaxis of Influenza B Massachusetts virus infection in mice; assay type: in vivo, mouse; details: oral
Procedure: The activity of four compounds on Influenza B Mass. was tested in mice.
A portion of a commercially available sample of amantadine was recrystallized from isopropanol. The activity of the material against Influenza B Mass. was tested for the sample as obtained, the recrystallized portion, and the mother liquor obtained from recrystallizing the portion.

NNC(N)=S [Thiosemicarbazide, thiosemicarbazide]
No. animals surviving when 19/20 controls are dead (Herpes virus [1]; total dose 5 μg): 0 | No. animals surviving when 17/20 controls are dead (Herpes virus [1]; total dose .000005 μg): 0 | No. animals surviving when 17/20 controls are dead (Herpes virus [1]; total dose .00005 μg): 3 | Survivors (Herpes virus [1]; total dose .00005 μg): 3 | No. animals surviving after 7 days (Herpes virus [1]; total dose .0005 μg): 6 | No. animals surviving when 17/20 controls are dead (Herpes virus [1]; total dose .0005 μg): 0 | No. animals surviving after 7 days (Herpes virus [1]; total dose .005 μg): 6 | No. animals surviving when 17/20 controls are dead (Herpes virus [1]; total dose .05 μg): 0 | No. Living Longer Than Controls, total (Herpes virus [2]): 7 | Deaths on day 1 (Herpes virus [2]; dose 2 μg): 3 | Deaths on day 3 (Herpes virus [2]; dose 2 μg): 5 | Deaths on day 4 (Herpes virus [2]; dose 2 μg): 3 | Total Deaths 4th Day (Herpes virus [2]; dose 2 μg): 12 | Deaths on day 2 (Herpes virus [2]; dose 20 μg): 4 | Deaths on day 3 (Herpes virus [2]; dose 20 μg): 6 | Total Deaths 4th Day (Herpes virus [2]; dose 20 μg): 12 | Deaths on day 1 (Herpes virus [2]; dose .00005 μg): 2 | Deaths on day 2 (Herpes virus [2]; dose .00005 μg): 5 | Deaths on day 3 (Herpes virus [2]; dose .00005 μg): 2 | Total Deaths 4th Day (Herpes virus [2]; dose .00005 μg): 10 | Deaths on day 1 (Herpes virus [2]; dose .0005 μg): 2 | Deaths on day 2 (Herpes virus [2]; dose .0005 μg): 3 | Deaths on day 3 (Herpes virus [2]; dose .0005 μg): 2 | Deaths on day 4 (Herpes virus [2]; dose .0005 μg): 3 | Total Deaths 4th Day (Herpes virus [2]; dose .0005 μg): 10 | Deaths on day 1 (Herpes virus [2]; dose .005 μg): 4 | Deaths on day 2 (Herpes virus [2]; dose .005 μg): 3 | Deaths on day 3 (Herpes virus [2]; dose .005 μg): 3 | Total Deaths 4th Day (Herpes virus [2]; dose .005 μg): 10 | Deaths on day 2 (Herpes virus [2]; dose .05 μg): 3 | Deaths on day 3 (Herpes virus [2]; dose .05 μg): 5 | Total Deaths 4th Day (Herpes virus [2]; dose .05 μg): 9 | Deaths on day 1 (Herpes virus [2]; dose .5 μg): 3 | Deaths on day 2 (Herpes virus [2]; dose .5 μg): 4 | Deaths on day 3 (Herpes virus [2]; dose .5 μg): 2 | Deaths on day 4 (Herpes virus [2]; dose .5 μg): 2 | Total Deaths 4th Day (Herpes virus [2]; dose .5 μg): 11 | Survivors ([3]; oral, total dose .5 μg): 0 | protection (Influenza PR 8 virus; intraperitoneal): almost no protection | Survivors (Influenza PR 8 virus; intraperitoneal, total dose 5 μg): 0 | Survivors (Influenza PR 8 virus; intraperitoneal, total dose .005 μg): 0 | Survivors (Influenza PR 8 virus; intraperitoneal, total dose .05 μg): 0 | Survivors (Influenza PR 8 virus; intraperitoneal, total dose .5 μg): 0 | Survivors (Influenza PR 8 virus; oral, total dose .005 μg): 3 | Survivors (Influenza PR 8 virus; oral, total dose .5 μg): 0 | Survivors (Influenza PR 8 virus; subcutaneous, total dose 5 μg): 3 | Survivors (Influenza PR 8 virus; subcutaneous, total dose .0005 μg): 0 | Survivors (Influenza PR 8 virus; subcutaneous, total dose .005 μg): 0 | Survivors (Mengo virus; total dose .0000005 μg): 0 | No. animals surviving after 6 days (Mengo virus; total dose .000005 μg): 2 | Survivors (Mengo virus; total dose .000005 μg): 1 | No. animals surviving after 6 days (Mengo virus; total dose .00005 μg): 5 | Survivors (Mengo virus; total dose .00005 μg): 1 | Survivors (Mengo virus; total dose .0005 μg): 0 | Survivors (Mengo virus; total dose .005 μg): 0 | effect on pox formation (Vaccinia virus [4]): highly significant diminution in the vaccinia pox formation | effect on pox formation on the membrane (Vaccinia virus [5]): No effect on pox formation on the membrane could be observed | activity (in words) (virus infections): active against Influenza PR 8, Vaccinia in the mouse tail, Mengo virus, Herpes virus in mice and eggs, Influenza virus, and Vaccinia virus in rabbits | surviving animals (three instances, single dose level) (Neurovaccinia virus): one

NC12CC3CC(CC(C3)C1)C2 [Amantadine, amantadine, reference compound]
tests with survivors (of 18 tests) ([3]; 18 tests): 5 | instances of a statistically significant number of survivors (Influenza PR 8 virus; 41 tests): one single instance | instances of increased geometric mean survival time (Influenza PR 8 virus; 41 tests): 11 | number of survivors in the single significant instance (Influenza PR 8 virus; 41 tests): 3 | activity (in words) (virus infections): inactive against all of the other viruses in the test system | chemoprophylaxis (in words) [6]: ineffective against Influenza B Massachusetts

CCC(C)=NNC(N)=S [thiosemicarbazone]
protection against death (Influenza PR 8 virus; drinking water 24 h pre- and 24 h post-infection): significantly protected against death | statistically significant geometric mean survival time (Columbia SK Polio virus): two instances of a statistically significant geometric mean survival time | effect on pox formation (Vaccinia virus [4]): dramatic reduction and even elimination of all pox formation over several dilutions; also recorded: highly significant diminution of pox formation

NNC(N)=O [semicarbazide]
Survivors (Herpes virus [1]; total dose .000005 μg): 0 | Survivors (Herpes virus [1]; total dose .5 μg): 0 | No. Living Longer Than Controls, total (Herpes virus [2]): 10 | total number of survivors ([3]; oral, four dose levels): 10 | Survivors ([3]; subcutaneous, total dose .05 μg): 0 | Survivors (Influenza PR 8 virus; oral, total dose .000005 μg): 0 | No. animals surviving when 18/20 of controls are dead (Influenza PR 8 virus; oral, total dose .00005 μg): 0 | Survivors (Influenza PR 8 virus; oral, total dose .00005 μg): 0 | No. animals surviving when 18/20 of controls are dead (Influenza PR 8 virus; oral, total dose .0005 μg): 0 | Survivors (Influenza PR 8 virus; oral, total dose .0005 μg): 0 | No. animals surviving when 18/20 of controls are dead (Influenza PR 8 virus; oral, total dose .005 μg): 0 | Survivors (Influenza PR 8 virus; oral, total dose .005 μg): 0 | No. animals surviving when 18/20 of controls are dead (Influenza PR 8 virus; oral, total dose .05 μg): 4 | Survivors (Influenza PR 8 virus; oral, total dose .05 μg): 4 | No. animals surviving when 100% controls are dead ([7]; total dose .000005 μg): 0 | Survivors ([7]; total dose .000005 μg): 0 | No. animals surviving when 100% controls are dead ([7]; total dose .00005 μg): 0 | Survivors ([7]; total dose .00005 μg): 0 | No. animals surviving when 100% controls are dead ([7]; total dose .0005 μg): 1 | Survivors ([7]; total dose .0005 μg): 0 | No. animals surviving after 5 days ([7]; total dose .005 μg): 6 | Survivors ([7]; total dose .005 μg): 0 | No. animals surviving after 5 days ([7]; total dose .05 μg): 6 | No. animals surviving when 100% controls are dead ([7]; total dose .05 μg): 1 | Survivors ([7]; total dose .05 μg): 0 | No. animals surviving after 5 days ([7]; total dose .5 μg): 4 | No. animals surviving when 100% controls are dead ([7]; total dose .5 μg): 1 | Survivors ([7]; total dose .5 μg): 0 | effect on pox formation on the membrane (Vaccinia virus [5]): No effect on pox formation on the membrane could be observed
